What all share (assay type): cell-based
The target of one assay is T1, human TLR8 (Homo sapiens, UniProt Q9NR97).
T1 construct: host or cells: HEK-Blue cells (HEK293-derived reporter line)
T1 sequence (Q9NR97 27-1041): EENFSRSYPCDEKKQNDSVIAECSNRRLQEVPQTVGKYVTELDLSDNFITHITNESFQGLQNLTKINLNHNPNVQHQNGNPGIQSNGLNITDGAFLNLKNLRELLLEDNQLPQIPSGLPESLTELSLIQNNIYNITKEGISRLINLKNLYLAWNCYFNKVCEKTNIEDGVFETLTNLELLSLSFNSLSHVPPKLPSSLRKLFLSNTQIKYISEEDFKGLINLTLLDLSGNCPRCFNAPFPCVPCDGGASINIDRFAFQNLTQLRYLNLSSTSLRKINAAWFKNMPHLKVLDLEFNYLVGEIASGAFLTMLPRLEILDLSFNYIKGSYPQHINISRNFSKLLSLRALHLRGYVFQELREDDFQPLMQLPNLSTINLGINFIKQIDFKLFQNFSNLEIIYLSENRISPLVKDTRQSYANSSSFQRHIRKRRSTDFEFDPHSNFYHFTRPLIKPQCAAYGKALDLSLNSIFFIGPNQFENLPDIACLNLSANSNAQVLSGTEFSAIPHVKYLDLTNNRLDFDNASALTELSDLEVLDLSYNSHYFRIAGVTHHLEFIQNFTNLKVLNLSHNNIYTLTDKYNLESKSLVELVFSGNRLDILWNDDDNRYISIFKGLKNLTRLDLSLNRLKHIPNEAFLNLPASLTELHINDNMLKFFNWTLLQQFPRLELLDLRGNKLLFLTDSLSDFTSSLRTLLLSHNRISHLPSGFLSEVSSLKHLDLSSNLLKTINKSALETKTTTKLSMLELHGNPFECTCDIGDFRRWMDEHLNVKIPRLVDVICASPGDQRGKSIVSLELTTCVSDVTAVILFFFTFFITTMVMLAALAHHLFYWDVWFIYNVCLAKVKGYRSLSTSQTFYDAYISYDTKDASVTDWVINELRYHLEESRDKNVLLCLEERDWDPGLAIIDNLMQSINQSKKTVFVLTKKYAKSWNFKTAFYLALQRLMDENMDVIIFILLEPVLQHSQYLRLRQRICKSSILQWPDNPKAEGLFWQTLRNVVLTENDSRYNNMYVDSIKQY
Kind of assay: TLR8 inhibition reporter assay (HEK-Blue cells, secreted embryonic alkaline phosphatase reporter). The following applies: HEK-Blue cells overexpressing human TLR8, stimulated with R848 15.9 μM; read-out: TLR 8 IC50. The method, boiled down: (§1)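 Inhibitors are tested in dose response (0.05 nM–50 μM) on HEK-Blue reporter cells expressing human TLR7, TLR8 or TLR9. After 30 min at room temperature, each line is stimulated with its own agonist (gardiquimod 7.5 μM, R848 15.9 μM or ODN2006 5 nM, final) and SEAP is measured 22 h later.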

Another assay concerns the target T2, human TLR7 (Homo sapiens, UniProt Q9NYK1).
T2 construct: host or cells: HEK-Blue cells (HEK293-derived reporter line)
T2 sequence (Q9NYK1 27-1049): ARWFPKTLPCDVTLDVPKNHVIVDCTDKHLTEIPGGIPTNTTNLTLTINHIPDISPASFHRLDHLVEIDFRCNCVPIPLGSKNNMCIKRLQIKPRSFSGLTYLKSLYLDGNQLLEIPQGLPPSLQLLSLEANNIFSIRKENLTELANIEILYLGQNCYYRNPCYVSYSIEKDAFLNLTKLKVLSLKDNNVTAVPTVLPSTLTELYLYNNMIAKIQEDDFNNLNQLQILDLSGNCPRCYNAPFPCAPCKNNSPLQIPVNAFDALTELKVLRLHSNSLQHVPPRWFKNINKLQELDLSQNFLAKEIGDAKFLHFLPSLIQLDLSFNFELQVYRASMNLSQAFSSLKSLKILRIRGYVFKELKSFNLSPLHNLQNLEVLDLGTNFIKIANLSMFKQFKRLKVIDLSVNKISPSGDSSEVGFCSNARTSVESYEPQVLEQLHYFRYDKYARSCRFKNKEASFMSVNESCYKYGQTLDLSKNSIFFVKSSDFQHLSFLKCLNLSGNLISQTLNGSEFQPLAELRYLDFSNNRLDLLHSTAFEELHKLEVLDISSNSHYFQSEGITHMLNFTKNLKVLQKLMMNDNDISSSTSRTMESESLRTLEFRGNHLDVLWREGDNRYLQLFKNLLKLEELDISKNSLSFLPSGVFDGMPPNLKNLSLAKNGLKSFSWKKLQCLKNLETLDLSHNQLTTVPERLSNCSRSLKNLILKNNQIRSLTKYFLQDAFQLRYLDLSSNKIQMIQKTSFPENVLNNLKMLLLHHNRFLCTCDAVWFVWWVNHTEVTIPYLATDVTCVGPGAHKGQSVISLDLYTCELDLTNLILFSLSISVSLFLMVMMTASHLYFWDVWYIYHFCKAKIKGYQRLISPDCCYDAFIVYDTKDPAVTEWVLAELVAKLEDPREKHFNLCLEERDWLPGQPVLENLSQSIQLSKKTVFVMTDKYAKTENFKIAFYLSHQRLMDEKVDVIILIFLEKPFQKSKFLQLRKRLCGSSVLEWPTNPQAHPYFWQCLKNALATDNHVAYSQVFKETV
The assay is described as follows: TLR7 inhibition reporter assay (HEK-Blue cells, secreted embryonic alkaline phosphatase reporter). Conditions: HEK-Blue cells overexpressing human TLR7, stimulated with gardiquimod 7.5 μM; read-out: TLR 7 IC50. The essentials:
as §1

The target of a further assay is T3, human TLR9 (Homo sapiens, UniProt Q9NR96).
T3 construct: host or cells: HEK-Blue cells (HEK293-derived reporter line)
T3 sequence (Q9NR96 26-1032): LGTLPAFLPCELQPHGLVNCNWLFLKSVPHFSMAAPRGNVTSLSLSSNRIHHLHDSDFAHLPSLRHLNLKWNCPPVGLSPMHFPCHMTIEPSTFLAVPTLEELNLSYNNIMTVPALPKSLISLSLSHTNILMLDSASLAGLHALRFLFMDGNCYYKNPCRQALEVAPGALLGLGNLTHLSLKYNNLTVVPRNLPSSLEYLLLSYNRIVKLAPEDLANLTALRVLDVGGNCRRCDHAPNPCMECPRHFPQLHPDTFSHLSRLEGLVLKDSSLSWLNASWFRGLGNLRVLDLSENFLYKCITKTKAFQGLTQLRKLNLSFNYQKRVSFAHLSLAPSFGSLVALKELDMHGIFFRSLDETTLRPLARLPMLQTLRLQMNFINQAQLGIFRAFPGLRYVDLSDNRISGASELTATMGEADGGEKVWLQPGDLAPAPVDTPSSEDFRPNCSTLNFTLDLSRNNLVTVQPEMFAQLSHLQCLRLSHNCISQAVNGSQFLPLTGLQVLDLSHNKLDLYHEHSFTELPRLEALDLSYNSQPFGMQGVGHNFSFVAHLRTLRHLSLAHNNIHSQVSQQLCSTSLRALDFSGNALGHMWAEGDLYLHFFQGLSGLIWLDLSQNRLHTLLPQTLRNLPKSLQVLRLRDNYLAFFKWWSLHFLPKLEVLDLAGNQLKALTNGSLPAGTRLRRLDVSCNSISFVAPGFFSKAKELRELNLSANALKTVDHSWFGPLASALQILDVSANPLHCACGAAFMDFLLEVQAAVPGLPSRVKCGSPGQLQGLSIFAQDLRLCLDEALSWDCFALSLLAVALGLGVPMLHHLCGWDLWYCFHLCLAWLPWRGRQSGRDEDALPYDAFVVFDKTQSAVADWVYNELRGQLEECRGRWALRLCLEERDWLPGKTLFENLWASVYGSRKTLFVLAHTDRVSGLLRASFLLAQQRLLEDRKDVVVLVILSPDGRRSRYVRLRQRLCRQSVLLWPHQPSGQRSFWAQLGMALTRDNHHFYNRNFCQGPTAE
The assay is described as follows: TLR9 inhibition reporter assay (HEK-Blue cells, secreted embryonic alkaline phosphatase reporter). The essentials:
as §1

Setting [1] is: HEK-Blue cells overexpressing human TLR9, stimulated with ODN2006 5 nM, read-out: TLR 9 IC50.
Setting [2] is: HEK-Blue human TLR9 reporter cells.

pIC50: −log10 of the molar value. Where two headings read alike, the source gives them in different places.

As for `Cn1c(-c2ccc(S(C)(=O)=O)cc2)nc2ccc(C3CCN(C4CCCN(C5COC5)CC4)CC3)c(F)c21` (stereo not shown) [Example 315, 7-fluoro-1-methyl-2-(4-(methylsulfonyl)phenyl)-6-(1-(1-(oxetan-3-yl)azepan-4-yl)piperidin-4-yl)-1H-benzo[d]imidazole], the negative logarithm of the IC50 (pIC50) on human TLR8 was less than 4.30; at human TLR7, 5.21; on human TLR9 (setting [1]), 6.83; against human TLR9 (setting [2]), 6.82.

For the molecule `Cn1c(-c2ccc(S(C)(=O)=O)cc2)nc2ccc(C3CCN(C4CCCN(C5CCOCC5)CC4)CC3)c(F)c21` (stereo not shown) [Example 316, 7-fluoro-1-methyl-2-(4-(methylsulfonyl)phenyl)-6-(1-(1-(tetrahydro-2H-pyran-4-yl)azepan-4-yl)piperidin-4-yl)-1H-benzo[d]imidazole], the pIC50 was 4.78 at human TLR8, less than 4.30 at human TLR7, 7.85 on human TLR9 (setting [1]) and 7.85 on human TLR9 (setting [2]).

For the molecule `Cc1cc(C2CCN(C3CCN(c4ccccc4)CC3)CC2)cc2c1nc(-c1ccc(S(C)(=O)=O)cc1)n2C` [Example 318, 1,4-dimethyl-2-(4-(methylsulfonyl)phenyl)-6-(1′-phenyl-[1,4′-bipiperidin]-4-yl)-1H-benzo[d]imidazole], the pIC50 was less than 4.30 on human TLR8, 4.99 on human TLR7, 6.57 at human TLR9 (setting [1]) and 6.57 against human TLR9 (setting [2]).

With `CC(C)CN1CCC(N2CCC(c3cc(F)c4nc(-c5ccc(S(C)(=O)=O)cc5)n(C5CC5)c4c3)CC2)CC1` [Example 319, 1-cyclopropyl-4-fluoro-6-(1′-isobutyl-[1,4′-bipiperidin]-4-yl)-2-(4-(methylsulfonyl)phenyl)-1H-benzo[d]imidazole], the pIC50 was less than 4.30 on human TLR8, 5.85 at human TLR7, 7.03 at human TLR9 (setting [1]) and 7.03 against human TLR9 (setting [2]).

On to `CS(=O)(=O)c1ccc(-c2nc3c(F)cc(C4CCN(C5CCN(C6CCOCC6)CC5)CC4)cc3n2C2CC2)cc1` [Example 321, 1-cyclopropyl-4-fluoro-2-(4-(methylsulfonyl)phenyl)-6-(1′-(tetrahydro-2H-pyran-4-yl)-[1,4′-bipiperidin]-4-yl)-1H-benzo[d]imidazole], for which the pIC50 on human TLR8 is less than 4.30; at human TLR7, 5.72; on human TLR9 (setting [1]), 7.44; on human TLR9 (setting [2]), 7.44.

`CS(=O)(=O)c1ccc(-c2nc3c(F)cc(C4CCN(C5CC6CCC(C5)N6C5CCOCC5)CC4)cc3n2C2CC2)cc1` (stereo not shown) [Example 328, 1-cyclopropyl-4-fluoro-2-(4-(methylsulfonyl)phenyl)-6-(1-(8-(tetrahydro-2H-pyran-4-yl)-8-azabicyclo[3.2.1]octan-3-yl)piperidin-4-yl)-1H-benzo[d]imidazole]: the pIC50 at human TLR8 was less than 4.30; at human TLR7, 5.64; on human TLR9 (setting [1]), 7.92; against human TLR9 (setting [2]) it was 7.92.

As to `CS(=O)(=O)c1ccc(-c2nc3c(F)cc(C4CCN(C5CC6CCC(C5)N6C5CCOCC5)CC4)cc3n2C2CC2)cc1` (stereo not shown) [Example 329, 1-cyclopropyl-4-fluoro-2-(4-(methylsulfonyl)phenyl)-6-(1-(8-(tetrahydro-2H-pyran-4-yl)-8-azabicyclo[3.2.1]octan-3-yl)piperidin-4-yl)-1H-benzo[d]imidazole], the pIC50 on human TLR8 was less than 4.30; at human TLR7, 5.92; on human TLR9 (setting [1]), 7.55; against human TLR9 (setting [2]), 7.55.

`Cc1cc(C2CCN(C3CC4CCC(C3)N4C(C)C)CC2)cc2[nH]c(-c3ccc(S(C)(=O)=O)cc3)nc12` (stereo not shown) [Example 332, 6-(1-(8-isopropyl-8-azabicyclo[3.2.1]octan-3-yl)piperidin-4-yl)-4-methyl-2-(4-(methylsulfonyl)phenyl)-1H-benzo[d]imidazole]: the pIC50 was less than 4.30 on human TLR8, less than 4.30 at human TLR7, 6.76 on human TLR9 (setting [1]) and 6.77 against human TLR9 (setting [2]).

On to `Cc1cc(C2CCN(C3CC4CCC(C3)N4C(C)C)CC2)cc2[nH]c(-c3ccc(S(C)(=O)=O)cc3)nc12` (stereo not shown) [Example 333, 6-(1-(8-isopropyl-8-azabicyclo[3.2.1]octan-3-yl)piperidin-4-yl)-4-methyl-2-(4-(methylsulfonyl)phenyl)-1H-benzo[d]imidazole], for which the pIC50 at human TLR8 is less than 4.30; at human TLR7, less than 4.30; at human TLR9 (setting [1]), 6.48; against human TLR9 (setting [2]) it was 6.48.

On to `Cc1cc(C2CCN(C3CC4CCC(C3)N4C3CCC3)CC2)cc2[nH]c(-c3ccc(S(C)(=O)=O)cc3)nc12` (stereo not shown) [Example 334, 6-(1-(8-cyclobutyl-8-azabicyclo[3.2.1]octan-3-yl)piperidin-4-yl)-4-methyl-2-(4-(methylsulfonyl)phenyl)-1H-benzo[d]imidazole], for which the pIC50 was less than 4.30 at human TLR8, less than 4.30 at human TLR7, 6.53 at human TLR9 (setting [1]) and 6.52 against human TLR9 (setting [2]).

For the origin of these results see patent US12492188B2, “1H-benzo[D]imidazole derivatives as TLR9 inhibitors for the treatment of fibrosis” (BRISTOL-MYERS SQUIBB COMPANY, priority 2020, dated 2025).
